From ChEMBL document CHEMBL5247589, “Natural occurrence, bioactivity, and biosynthesis of triene-ansamycins” (Eur J Med Chem, 2022) come the findings set out here.

The term IC50 denotes the concentration needed to halve the response being measured.

Series [1] deals with HeLa. Description: Antitumor activity against human HeLa cells assessed as cell growth inhibition incubated for 72 hrs by MTT assay. The class given is functional, cell-based. For orientation: Tetrazolium dyes change colour on reduction, which living cells bring about.
The subject of a further series is SW1990. Put plainly: Antitumor activity against human SW1990 cells assessed as cell growth inhibition incubated for 48 hrs by CCK-8 assay. The class given is functional, cell-based. The following applies: SW1990, 48 h.
In series [2] the test system is PANC-1. Put plainly: Antitumor activity against human PANC-1 cells assessed as cell growth inhibition incubated for 48 hrs by CCK-8 assay. Format: functional, cell-based. The following applies: PANC-1, 48 h.
The subject of a further series is COLO 201. Put plainly: Antitumor activity against human COL0201 cells assessed as cell growth inhibition incubated for 3 days. The class given is functional, cell-based. Conditions: COLO 201, 72 h.
Another series relates to MCF7. Description: Antitumor activity against human MCF7 cells assessed as cell growth inhibition incubated for 3 days. The class given is functional, cell-based. Conditions: MCF7, 72 h.
Series [3] relates to HeLa. Put plainly: Antitumor activity against human HeLa cells assessed as cell growth inhibition incubated for 3 days. The class given is functional, cell-based. The following applies: 72 h.
The test system of the next series is C-33-A. Description: Antitumor activity against human C33A cells assessed as cell growth inhibition incubated for 3 days. The following applies: 72 h. Format: functional, cell-based.
Series [4] deals with HeLa. Description: Antiproliferative activity against human HeLa cells incubated for 72 hrs by absorbance based assay. The class given is functional, cell-based.
The next series deals with NCI-H1299. Put plainly: Antiproliferative activity against human H1299 cells incubated for 72 hrs by absorbance based assay. The class given is functional, cell-based. The following applies: NCI-H1299, 72 h.
The subject of another series is L5178Y. Description: Cytotoxicity against mouse L5178Y. Format: toxicity, cell-based.
The test system of series [5] is PANC-1. Description: Antitumor activity against human PANC-1. The following applies: pooled result: one value given for 3 cell lines, strains, targets or settings. The class given is functional, cell-based.

Molecules are shown by their SMILES. Values after ≈ are worked out from the molar mass of the structure shown.

On to `C/C1=C/CCc2cc(O)cc(c2)NC(=O)C[C@@H](O)/C=C/C=C/C=C/C[C@H](O)C[C@H]1O`, for which the IC50 in the series with HeLa [1] is greater than 10 µM.

Take `CO[C@@H]1CC(=O)Nc2c(O)c3cc4c2[C@H](/C=C/C=C\C[C@H](OC(=O)[C@@H](C)NC(=O)C2CCCCC2)[C@H](C)[C@@H](O)/C(C)=C\CC3)[C@H]1O4`: the IC50 with SW1990 and in the series with PANC-1 [2] was 6.9 µM in each case.

For the compound `CO[C@H]1/C=C/C=C/C=C/C[C@H](OC(=O)[C@@H](C)NC(=O)C2=CCCCC2)[C@H](C)[C@@H](O)/C(C)=C\CCc2c(O)c(cc3c2SCC(=O)N3)NC(=O)C1`, the IC50 in the series on COLO 201, in the series with MCF7, in the series with HeLa [3] and in the series with C-33-A was 0.028 µM in each case.

For `CO[C@H]1/C=C/C=C/C=C/C[C@@H]2O[C@@](C)([C@H](O)[C@H]2C)[C@H]2CCC3=C(S2)C(=O)C=C(NC(=O)C1)C3=O`, the IC50 is 10 µM with HeLa [4] and greater than 10 µM with NCI-H1299.

For the compound `CO[C@H]1/C=C/C=C/C=C/C[C@H](O)[C@H](C)[C@@H](O)/C(C)=C\CCc2c(O)c(cc3ncsc23)NC(=O)C1`, the results for the 50% inhibitory concentration (IC50) with HeLa [4] and in the series with NCI-H1299 were 10 µM and greater than 10 µM, respectively.

The compound `CO[C@H]1/C=C/C=C/C=C/C[C@H](OC(=O)[C@@H](C)NC(=O)C2CCCCC2)[C@H](C)[C@@H](O)/C(C)=C\CCc2cc(O[C@@H]3O[C@H](CO)[C@@H](O)[C@H](O)[C@H]3O)cc(c2O)NC(=O)C1` displayed an MIC against L5178Y of 1 µM (≈ 0.801 µg/mL).

For the compound `CO[C@@H]1CC(=O)Nc2c(O)c3cc4c2[C@H](/C=C/C=C/C[C@H](OC(=O)[C@@H](C)NC(=O)CC(C)C)[C@H](C)[C@@H](O)/C(C)=C\CC3)[C@H]1O4`, the IC50 in the series on SW1990 and in the series with PANC-1 [2] was greater than 10 µM each time.

As to `CO[C@H]1/C=C/C=C/C=C/C[C@H](OC(=O)[C@@H](C)NC(=O)C2CCCCC2)[C@H](C)[C@@H](O)/C(C)=C\CCC2=CC(=O)C(SC)=C(NC(=O)C1)C2=O`, the IC50 in the series on HeLa [1] was determined as 0.1 µM.

Consider `CO[C@@H]1CC(=O)Nc2c(O)c3cc4c2[C@@H](/C=C/C=C/C[C@H](OC(=O)[C@@H](C)NC(=O)C2CCCCC2)[C@H](C)[C@@H](O)/C(C)=C\CC3)[C@@H]1O4`, for which the IC50 with SW1990 and with PANC-1 [2] was 5.81 µM each time.

`CO[C@H]1/C=C/C=C/C=C/C[C@H](OC(=O)[C@@H](C)NC(=O)C2CCCCC2)[C@H](C)C(=O)/C(C)=C\CCC2=CC(=O)C=C(NC(=O)C1)C2=O`: the half-maximal inhibitory concentration (IC50) in the series on HeLa [1] was greater than 10 µM.

For the compound `C/C1=C/CCc2cc(O)cc(c2)NC(=O)C[C@@H](O)/C=C/C=C/C=C/C[C@H](O)[C@H](C)[C@H]1O`, the IC50 was 10 µM in the series with HeLa [4] and greater than 10 µM in the series on NCI-H1299.

Turning to `CO[C@@H]1CC(=O)Nc2c(O)c3cc4c2[C@H](/C=C/C=C/C[C@H](OC(=O)[C@@H](C)NC(=O)C2CCCCC2)[C@H](C)[C@@H](O)/C(C)=C\CC3)[C@H]1O4`, the IC50 with SW1990 and in the series with PANC-1 [2] was 3.99 µM throughout.

With `CO[C@H]1/C=C/C=C/C=C/C[C@H](OC(=O)[C@@H](C)NC(=O)CC(C)C)[C@H](C)[C@@H](O)/C(C)=C\CCc2c(O)c(cc3c2SCC(=O)N3)NC(=O)C1`, the half-maximal inhibitory concentration (IC50) with COLO 201, in the series with MCF7, in the series with HeLa [3] and in the series on C-33-A was 0.15 µM in each case.

Turning to `CO[C@H]1/C=C/C=C/C=C/C[C@H](OC(=O)[C@@H](C)NC(=O)C2CCCCC2)[C@H](C)[C@@H](O)/C(C)=C\CCC2=C(SC)C(=O)C=C(NC(=O)C1)C2=O`, the IC50 in the series with HeLa [1] amounted to 0.055 µM.

For the compound `CO[C@@H]1CC(=O)Nc2c(O)c3cc4c2[C@@H](/C=C/C=C/C[C@H](OC(=O)[C@@H](C)NC(=O)C2CCCCC2)[C@H](C)[C@@H](O)/C(C)=C\CC3)[C@H]1O4`, the IC50 with SW1990 and in the series with PANC-1 [2] was 4.73 µM in each case.

Take `CO[C@H]1/C=C/C=C/C=C/C[C@H](OC(=O)[C@@H](C)NC(=O)C2CCCCC2)[C@H](C)[C@@H](O)/C(C)=C\CCc2c(O)c(cc(O)c2SC)NC(=O)C1`: the IC50 with HeLa [1] worked out at 0.2 µM.

For `CO[C@H]1/C=C/C=C/C=C/C[C@H](OC(=O)[C@@H](C)NC(=O)C2CCCC(O)C2)[C@H](C)[C@@H](O)/C(C)=C\CCc2cc(O)cc(c2O)NC(=O)C1` (stereo not given in full), the MIC against L5178Y came to 4.89 µM (≈ 3.2 µg/mL).

With `CO[C@H]1/C=C/C=C/C=C/C[C@H](OC(=O)[C@@H](C)NC(=O)C2CCCCC2)[C@H](C)[C@@H](O)/C=C\CCc2cc(O)cc(c2)NC(=O)C1`, in the series on HeLa [1], the IC50 worked out at 0.86 µM.

For `CO[C@@H]1CC(=O)N2c3cc(O)cc4c3O[C@H](/C=C/C=C/C[C@H](O)[C@H](C)[C@@H](O)/C(C)=C\CC4)[C@H]12`, the half-maximal inhibitory concentration (IC50) with HeLa [4] is 10 µM; in the series with NCI-H1299, greater than 10 µM.

On to `CO[C@H]1/C=C/C=C/C=C/C[C@H](OC(=O)[C@@H](C)NC(=O)CCC(C)C)[C@H](C)[C@@H](O)/C(C)=C\CCc2cc(O)cc(c2)NC(=O)C1`, for which, in the series on PANC-1 [5], the IC50 was 0.17 µM.
